Results on three molecules are retold here after patent US20250367231A1, “MULTIFUNCTIONAL BIOADHESIVE DESIGNED WITH CHEMICAL FUNCTIONALITY INDUCED SUTURED BIOLOGICAL BUILDING BLOCKS” (The Regents of the University of California, priority 2022, published 2025).

The conditions of the series: ambient conditions; for time to change in color (self-oxidation of catechol moieties): aqueous solution. From the text: Dopamine (Dopa), a naturally derived neurotransmitter molecule^[4], also resembles with the key moiety in mussel foot proteins (catechol)^[11] and has been intensely utilized to develop adhesive biomaterials with diverse clinical importance^[12]. In view of the biological relevance of multifunctional catecholic moieties, herein, Dopa skeleton was chemically modified with a nitro-group to modulate the electronic properties of the aromatic ring^[13] (FIG. 1a). To use the nitro incorporated dopamine (nDopa) moiety for designing functional biomaterials, it was further covalently conjugated with a methacrylate group through an amide linkage (FIG. 1a).

A value given as a limit tells only on which side of the number the result lay.

Consider `NCCc1ccc(O)c(O)c1` [Dopa, dopamine], for which the “time to change in color (self-oxidation of catechol moieties)” value was 1 h.

With `C=C(C)C(=O)NCCc1ccc(O)c(O)c1` [MAD, methacrylated dopamine], the “time to change in color (self-oxidation of catechol moieties)” value came out at 24 h.

In the case of `C=C(C)C(=O)NCCc1cc(O)c(O)cc1[N+](=O)[O-]` [nMAD, methacrylated nitro-dopamine], the time without self-oxidation is listed as more than 7 days.
